In patent US11447505B1, “Pyrrolo[2,3-b]pyridine compounds and their use in the treatment of cancer” (priority 2017, dated 2022):

Key:
[1] = target: ROCK2 (Homo sapiens (Human), UniProt O75116); test: ROCK2 kinase assay (IMAP fluorescence polarization); assay type: biochemical; details: 1 μM ATP; read-out: ROCK2 Average Ki
[2] = target: MRCKβ (Homo sapiens (Human), UniProt Q9Y5S2); test: MRCKβ kinase assay (IMAP fluorescence polarization); assay type: biochemical; details: 1 μM ATP; read-out: MRCK-B Average Ki
Text: MRCKα, MRCKβ, ROCK1 and ROCK2 Kinase Assays

[3] = target: ROCK1 (Homo sapiens (Human), UniProt Q13464); details: read-out: ROCK1 Average Ki; 1 μM ATP
Chain of ROCK1 (Q13464 2-1354 limits assumed): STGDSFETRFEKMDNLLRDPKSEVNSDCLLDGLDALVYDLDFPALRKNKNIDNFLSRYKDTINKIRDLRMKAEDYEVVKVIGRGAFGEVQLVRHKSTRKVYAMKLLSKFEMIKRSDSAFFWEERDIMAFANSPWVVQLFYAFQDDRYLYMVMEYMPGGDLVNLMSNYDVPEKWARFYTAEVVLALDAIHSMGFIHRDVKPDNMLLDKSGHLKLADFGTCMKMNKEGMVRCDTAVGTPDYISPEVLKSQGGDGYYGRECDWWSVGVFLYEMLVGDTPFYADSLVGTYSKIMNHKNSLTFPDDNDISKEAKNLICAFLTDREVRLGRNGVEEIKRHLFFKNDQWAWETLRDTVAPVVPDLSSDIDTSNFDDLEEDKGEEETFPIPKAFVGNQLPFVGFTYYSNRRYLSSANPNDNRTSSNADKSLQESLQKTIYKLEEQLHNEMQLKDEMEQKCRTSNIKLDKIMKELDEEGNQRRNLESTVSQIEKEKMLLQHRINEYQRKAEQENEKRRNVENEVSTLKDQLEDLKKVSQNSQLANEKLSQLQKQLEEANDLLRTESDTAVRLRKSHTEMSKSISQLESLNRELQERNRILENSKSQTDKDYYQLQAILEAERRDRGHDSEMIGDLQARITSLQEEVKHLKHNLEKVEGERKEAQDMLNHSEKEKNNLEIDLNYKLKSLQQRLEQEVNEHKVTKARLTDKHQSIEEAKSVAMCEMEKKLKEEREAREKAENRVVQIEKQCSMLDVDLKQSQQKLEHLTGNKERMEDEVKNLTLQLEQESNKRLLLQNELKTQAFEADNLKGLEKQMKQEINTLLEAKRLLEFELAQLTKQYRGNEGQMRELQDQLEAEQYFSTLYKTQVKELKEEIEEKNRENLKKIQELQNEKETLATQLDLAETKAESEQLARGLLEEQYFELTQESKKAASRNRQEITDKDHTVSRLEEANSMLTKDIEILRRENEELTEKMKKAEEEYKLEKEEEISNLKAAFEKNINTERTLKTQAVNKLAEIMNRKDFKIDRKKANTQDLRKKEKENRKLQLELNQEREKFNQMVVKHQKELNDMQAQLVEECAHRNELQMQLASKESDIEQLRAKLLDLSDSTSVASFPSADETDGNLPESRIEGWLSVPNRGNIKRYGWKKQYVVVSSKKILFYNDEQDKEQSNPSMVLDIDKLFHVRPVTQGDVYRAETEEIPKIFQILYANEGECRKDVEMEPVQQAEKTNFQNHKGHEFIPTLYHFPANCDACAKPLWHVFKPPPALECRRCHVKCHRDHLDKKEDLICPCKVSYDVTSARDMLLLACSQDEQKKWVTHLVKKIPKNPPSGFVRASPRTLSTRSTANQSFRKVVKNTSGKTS

Chain of ROCK2 (O75116 whole entry): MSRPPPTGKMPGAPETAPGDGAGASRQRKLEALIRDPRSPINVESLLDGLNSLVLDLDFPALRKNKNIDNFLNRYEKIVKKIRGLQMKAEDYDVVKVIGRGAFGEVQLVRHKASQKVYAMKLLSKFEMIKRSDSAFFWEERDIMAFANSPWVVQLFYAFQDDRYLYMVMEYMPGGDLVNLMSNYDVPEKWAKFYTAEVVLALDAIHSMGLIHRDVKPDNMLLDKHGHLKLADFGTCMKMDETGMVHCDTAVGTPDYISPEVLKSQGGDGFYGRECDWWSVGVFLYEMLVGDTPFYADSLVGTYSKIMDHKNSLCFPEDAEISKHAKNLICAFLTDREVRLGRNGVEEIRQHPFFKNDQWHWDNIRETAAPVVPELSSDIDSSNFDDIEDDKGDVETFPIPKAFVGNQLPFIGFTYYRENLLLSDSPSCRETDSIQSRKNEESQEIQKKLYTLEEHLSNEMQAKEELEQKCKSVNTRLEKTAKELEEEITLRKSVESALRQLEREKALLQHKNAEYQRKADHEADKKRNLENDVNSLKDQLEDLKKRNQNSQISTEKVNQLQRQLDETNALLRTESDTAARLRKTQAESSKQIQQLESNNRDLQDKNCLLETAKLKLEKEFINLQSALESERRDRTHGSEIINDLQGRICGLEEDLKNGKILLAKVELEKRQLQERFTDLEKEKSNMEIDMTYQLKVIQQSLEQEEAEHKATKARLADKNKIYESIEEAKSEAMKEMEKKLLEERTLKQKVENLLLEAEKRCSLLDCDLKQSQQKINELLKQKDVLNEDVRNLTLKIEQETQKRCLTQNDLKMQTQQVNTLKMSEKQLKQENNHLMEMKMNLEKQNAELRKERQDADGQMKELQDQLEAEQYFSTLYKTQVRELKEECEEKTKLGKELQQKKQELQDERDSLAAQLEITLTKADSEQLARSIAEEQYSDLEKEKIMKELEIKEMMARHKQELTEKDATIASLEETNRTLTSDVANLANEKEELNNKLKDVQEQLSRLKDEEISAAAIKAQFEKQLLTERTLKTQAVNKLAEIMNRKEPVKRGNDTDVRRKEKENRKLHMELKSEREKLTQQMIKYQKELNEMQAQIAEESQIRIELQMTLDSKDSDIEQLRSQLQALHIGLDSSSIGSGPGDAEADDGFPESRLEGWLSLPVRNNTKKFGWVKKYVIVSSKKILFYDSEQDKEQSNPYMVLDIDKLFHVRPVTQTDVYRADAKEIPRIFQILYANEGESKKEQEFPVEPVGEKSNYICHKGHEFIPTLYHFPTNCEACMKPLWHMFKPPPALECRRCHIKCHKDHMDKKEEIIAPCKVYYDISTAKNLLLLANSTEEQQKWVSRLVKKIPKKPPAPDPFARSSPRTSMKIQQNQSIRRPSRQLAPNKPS

SMILES | Ki [1] [nM] | Ki [2] [nM] | Ki [3] [nM]
NC1CCCN(c2ccnc3[nH]cc(-c4cncnc4)c23)C1 (stereo not drawn) [Example E59, 1-(3-pyrimidin-5-yl-1H-pyrrolo[2,3-b]pyridin-4-yl)piperidin-3-amine] | 154 | 6.9 | 318
Cc1[nH]ncc1-c1c[nH]c2nccc(N3CCC[C@H](N)C3)c12 [Example E61, (3S)-1-[3-(5-methyl-1H-pyrazol-4-yl)-1H-pyrrolo[2,3-b]pyridin-4-yl]piperidin-3-amine] | 68.3 | 11.5 | 93.2
CNC1CCCN(c2ccnc3[nH]cc(-c4cncnc4)c23)C1 (stereo not drawn) [Example E62, N-methyl-1-(3-pyrimidin-5-yl-1H-pyrrolo[2,3-b]pyridin-4-yl)piperidin-3-amine] | 314 | 4.1 | 360
CNC1CCN(c2ccnc3[nH]cc(-c4cncnc4)c23)CC1 [Example E63, N-methyl-1-(3-pyrimidin-5-yl-1H-pyrrolo[2,3-b]pyridin-4-yl)piperidin-4-amine] | 91.2 | 1.98 | 138
N[C@@H]1CCCN(c2ccnc3[nH]cc(-c4cncnc4)c23)C1 [Example E64, (3R)-1-(3-pyrimidin-5-yl-1H-pyrrolo[2,3-b]pyridin-4-yl)piperidin-3-amine] | 390 | 14.8 | 166
NC1CCN(c2ccnc3[nH]cc(-c4cncnc4)c23)CC1 [Example E65, 1-(3-pyrimidin-5-yl-1H-pyrrolo[2,3-b]pyridin-4-yl)piperidin-4-amine] | 138 | 1.65 | 128
CN[C@H]1CCCN(c2ccnc3[nH]cc(-c4cnsc4)c23)C1 [Example E67, (3S)-1-(3-isothiazol-4-yl-1H-pyrrolo[2,3-b]pyridin-4-yl)-N-methyl-piperidin-3-amine] | 36.4 | 0.273 | 109
CCN[C@H]1CCCN(c2ccnc3[nH]cc(-c4ccnnc4)c23)C1 [Example E71, (3S)—N-ethyl-1-(3-pyridazin-4-yl-1H-pyrrolo[2,3-b]pyridin-4-yl)piperidin-3-amine] | 73.9 | 0.802 | 152
COCCN[C@H]1CCCN(c2ccnc3[nH]cc(-c4cncnc4)c23)C1 [Example E73, (3S)-N-(2-methoxyethyl)-1-(3-pyrimidin-5-yl-1H-pyrrolo[2,3-b]pyridin-4-yl)piperidin-3-amine] | 964 | 5.71 | 2060
CN[C@H]1CCCN(c2ccnc3[nH]cc(C#N)c23)C1 [Example E74, 4-[(3S)-3-(methylamino)-1-piperidyl]-1H-pyrrolo[2,3-b]pyridine-3-carbonitrile] | 222 | 6.16 | 637
CN[C@H]1CCCN(c2ccnc3[nH]cc(-c4cnc(C)nc4)c23)C1 [Example E75, (3S)-N-methyl-1-[3-(2-methylpyrimidin-5-yl)-1H-pyrrolo[2,3-b]pyridin-4-yl]piperidin-3-amine] | 6420 | 25.4 | 21700
CC(C)N[C@H]1CCCN(c2ccnc3[nH]cc(-c4cncnc4)c23)C1 [Example E76, (3S)-N-isopropyl-1-(3-pyrimidin-5-yl-1H-pyrrolo[2,3-b]pyridin-4-yl)piperidin-3-amine] | 16800 | 871 | 32400
CN[C@@H]1CCCN(c2ccnc3[nH]cc(-c4cncnc4)c23)C1 [Example E77, (3R)-N-methyl-1-(3-pyrimidin-5-yl-1H-pyrrolo[2,3-b]pyridin-4-yl)piperidin-3-amine] | 248 | 10.5 | 379
c1ncc(-c2c[nH]c3nccc(NC4CCCCNC4)c23)cn1 (stereo not drawn) [Example E85, N-(azepan-3-yl)-3-pyrimidin-5-yl-1H-pyrrolo[2,3-b]pyridin-4-amine] | 460 | 14.1 | 421
c1ncc(-c2c[nH]c3nccc(N[C@@H]4CCCNC4)c23)cn1 [Example E88, N-[(3R)-3-piperidyl]-3-pyrimidin-5-yl-1H-pyrrolo[2,3-b]pyridin-4-amine] | 70.4 | 7.21 | 85.2
c1ncc(-c2c[nH]c3nccc(NC4CCNCC4)c23)cn1 [Example E89, N-(4-piperidyl)-3-pyrimidin-5-yl-1H-pyrrolo[2,3-b]pyridin-4-amine] | 92.7 | 20.5 | 109
CNCC1CCCN(c2ccnc3[nH]cc(-c4cncnc4)c23)C1 (stereo not drawn) [Example E90, N-methyl-1-[1-(3-pyrimidin-5-yl-1H-pyrrolo[2,3-b]pyridin-4-yl)-3-piperidyl]methanamine] | 217 | 6.01 | 148
c1ncc(-c2c[nH]c3nccc(N4CCCC(N5CCNCC5)C4)c23)cn1 (stereo not drawn) [Example E91, 4-(3-piperazin-1-yl-1-piperidyl)-3-pyrimidin-5-yl-1H-pyrrolo[2,3-b]pyridine] | 163 | 49.5 | 231
FC1CCN([C@H]2CCCN(c3ccnc4[nH]cc(-c5cncnc5)c34)C2)CC1 [Example E94, 4-[(3S)-3-(4-fluoro-1-piperidyl)-1-piperidyl]-3-pyrimidin-5-yl-1H-pyrrolo[2,3-b]pyridine] | 495 | 9.33 | 913
c1ncc(-c2c[nH]c3nccc(N4CCC[C@H](N5CCOCC5)C4)c23)cn1 [Example E96, 4-[(3S)-1-(3-pyrimidin-5-yl-1H-pyrrolo[2,3-b]pyridin-4-yl)-3-piperidyl]morpholine] | 876 | 28.8 | 1300
O[C@H]1CCCN(c2ccnc3[nH]cc(-c4cncnc4)c23)C1 [Example E101, (3S)-1-(3-pyrimidin-5-yl-1H-pyrrolo[2,3-b]pyridin-4-yl)piperidin-3-ol] | 363 | 22.5 | 567
c1cc(-c2c[nH]c3nccc(N4CCCC5(CCCCN5)C4)c23)cnn1 (stereo not drawn) [Example E172, 8-(3-pyridazin-4-yl-1H-pyrrolo[2,3-b]pyridin-4-yl)-1,8-diazaspiro[5.5]undecane] | 14.6 | 0.723 | 33.6
c1ncc(-c2c[nH]c3nccc(N4CC5CNCC5C4)c23)cn1 (stereo not drawn) [Example E199, 4-(2,3,3a,4,6,6a-hexahydro-1H-pyrrolo[3,4-c]pyrrol-5-yl)-3-pyrimidin-5-yl-1H-pyrrolo[2,3-b]pyridine] | 199 | 6.32 | 222

Other lines, results leading:

Ki [1] [nM] | Ki [2] [nM] | Ki [3] [nM] | SMILES
51.2 | 13.9 | 38.2 | c1ncc(-c2c[nH]c3nccc(NCC4CCNCC4)c23)cn1 [Example E102, N-(4-piperidylmethyl)-3-pyrimidin-5-yl-1H-pyrrolo[2,3-b]pyridin-4-amine]
161 | 18.7 | 252 | CN1CCCN(c2ccnc3[nH]cc(-c4cncnc4)c23)CC1 [Example E103, 4(4-methyl-1,4-diazepan-l-yl)-3-pyrimidin-5-yl-1H-pyrrolo[2,3-b]pyridine]
198 | 222 | 303 | Cc1[nH]ncc1-c1c[nH]c2nccc(N3CCCCC3)c12 [Example E104, 3-(5-methyl-1H-pyrazol-4-yl)-4-(1-piperidyl)-1H-pyrrolo[2,3-b]pyridine]
9.5 | 1 | 10.1 | NCC1CCN(c2ccnc3[nH]cc(-c4cncnc4)c23)CC1 [Example E105, [1-(3-pyrimidin-5-yl-1H-pyrrolo[2,3-b]pyridin-4-yl)-4-piperidyl]methanamine]
2820 | 90.3 | 1880 | N#Cc1c[nH]c2nccc(N3CCCC3Cc3ccccc3)c12 (stereo not drawn) [Example E107, 4-(2-benzylpyrrolidin-1-yl)-1H-pyrrolo[2,3-b]pyridine-3-carbonitrile]
18.8 | 3.89 | 21.8 | COC[C@@H]1CCCN1c1ccnc2[nH]cc(C#N)c12 [Example E108, 4-[(2S)-2-(methoxymethyl)pyrrolidin-1-yl]-1H-pyrrolo[2,3-b]pyridine-3-carbonitrile]
728 | 558 | 682 | N#Cc1c[nH]c2nccc(N3CCCC(c4ccccc4)C3)c12 (stereo not drawn) [Example E112, 4-(3-phenyl-1-piperidyl)-1H-pyrrolo[2,3-b]pyridine-3-carbonitrile]
144 | 111 | 388 | N#Cc1c[nH]c2nccc(N3CCCC3c3ccccc3)c12 (stereo not drawn) [Example E113, 4-(2-phenylpyrrolidin-1-yl)-1H-pyrrolo[2,3-b]pyridine-3-carbonitrile]
8.7 | 0.973 | 9.3 | c1ncc(-c2c[nH]c3nccc(N4CCC5(CCNC5)CC4)c23)cn1 [Example E190, 8-(3-pyrimidin-5-yl-1H-pyrrolo[2,3-b]pyridin-4-yl)-2,8-diazaspiro[4.5]decane]
7.7 | 2.05 | 9.28 | c1ncc(-c2c[nH]c3nccc(N4CCC5(CCNCC5)C4)c23)cn1 [Example E191, 2-(3-pyrimidin-5-yl-1H-pyrrolo[2,3-b]pyridin-4-yl)-2,8-diazaspiro[4.5]decane]
428 | 8.33 | 50500 | c1ncc(-c2c[nH]c3nccc(N4CCC[C@]5(CCCCN5)C4)c23)cn1 [Example E192, (6R)-8-(3-pyrimidin-5-yl-1H-pyrrolo[2,3-b]pyridin-4-yl)-1,8-diazaspiro[5.5]undecane]
762 | 119 | 558 | CN1CCN(C(=O)[C@@H]2CCCN2c2ccnc3[nH]cc(C#N)c23)CC1 [Example E204, 4-[(2S)-2-(4-methylpiperazine-1-carbonyl)pyrrolidin-1-yl]-1H-pyrrolo[2,3-b]pyridine-3-carbonitrile]
